Entries after “also recorded” stand apart in the source; their conditions may differ. Where two headings read alike, the source gives them in different places.
Assays:
[1] = tested on: Swiss Webster male mice; assay: Tail suspension test; type: in vivo, mouse; conditions: for immobility versus vehicle: acute ivt. 6FNE or DEX, 10 mg/kg
Experimental: (§1) In experiment on chronic administration, a daily dose of 0.5 mg/kg in the same vehicle was administered for 11 d.
(§2) Infusion procedure. All experiments were performed between 1000 and 1400 hr. […] A total of 350 n1 of solution was infused at 100 nl/min over a 3.5 min period with the cannula remaining in place for 30 seconds after infusion. The animal was then subjected to the behavioral tests described below making the interval between the start of infusion and start of behavioral test 4.5-5 min. […] All drugs were prepared freshly each day in saline.
Tail suspension test: The procedure of Stem, et al., Psychopharmacology 1985; 85: 367-370 was used. Immediately following intraventricular infusion or 30 min after the third i.p. injection, the animals were taped by the tail 72 cm above a padded platform for 6 min during which time they were videorecorded. Disks were subsequently rated blind as above for times immobile during the last 4 min of the test.

[2] = tested on: α2-adrenoceptors; conditions: atipamezole 0.5 mg/kg; cited from earlier work
[3] = tested on: α2-adrenoceptors; conditions: cited from earlier work
[4] = tested on: Swiss Webster male mice; assay: Repeated open space forced swim (RFS) test; conditions: for overall effect of antagonist pretreatment on distance swum / overall effect of antagonist pretreatment on immobility: prazosin 5 mg/kg or atipamezole 0.5 mg/kg i.p.; for distance swum versus vehicle / immobility versus vehicle: acute ivt. 6FNE or DEX; for immobility versus vehicle: 10 mg/kg
Experimental: as §1, §2
In this procedure, mice are swum for 15-20 min/d for 4 d in rat tub cages (24×43×23 cm, w×h×l) filled with 13 cm high luke-warm water (32-34° C.) and thereafter once or twice a week. […] In the present experiment, the animals were matched on immobility level of the 4th swim into vehicle and drug groups and infused ivt. just prior to the 5th swim. Groups given i.p. injections were dosed initially 5 min after the 4th swim and finally 30 min prior to the 5th swim. Discs were rated as above on immobility and distance swum (number of quadrants entered).

[5] = tested on: Swiss Webster male mice; assay: Observation for sedation and signs of toxicity; type: in vivo, mouse; conditions: intracerebral 6FNE or peripheral dp6FNE, range of behavioral tests
Text: Sedation interferes with behavioral performance and is therefore a detrimental side effect to the treatment of major depressive illness in humans.
Although dp6FNE was designed to be a temporary treatment, it was of interest to determine how long it would remain effective if given repeatedly.

[6] = tested on: Fos expression in LC, PVH, lateral septal nucleus and NAC; conditions: stimulation or blockade of LC α1-receptors (Stone et al. 2011); cited from earlier work
[7] = tested on: Swiss Webster male mice; assay: Acute forced swim test (Porsolt); type: in vivo, mouse
Experimental: A total of 420 Swiss Webster male mice (Taconic), 8-10 weeks old, were subjects. The animals were housed singly with nesting material for 5 d prior to surgery in standard size polycarbonate mouse cages (12.5×17×28 cm) at a room temperature of 22±1° C. under a 12 hr light/dark cycle (lights on 0500 hr). Food and water were available ad libitum.
Surgery: Mice, anesthetized with pentobarbital (70 mg/kg), were implanted stereotaxically with 26 ga cannula guides in the fourth cerebral ventricle (−5.9 mm to Bregma, 1 mm lateral, 3.9 mm ventral to skull surface) as described previously (Stone, et al., Brain Research (2009) 1291:21-31). All animals were given 10 days for recovery prior to infusions and behavioral testing.
as §2
Forced swim test: Separate groups of animals were used for each of the following behavioral tests. A modification of the Porsolt procedure for mice was used for the forced swim test (Porsolt, et al., Arch.int.Pharmacodyn.Ther. (1977) 229:327-336). […]

[8] = tested on: Swiss Webster male mice; assay: Open field motor activity after ivt. infusion; type: in vivo, mouse; conditions: 15 min post infusion; 6FNE 3 nmoles ivt.
Experimental: Open field motor activity: Implanted mice were placed singly in an open field (46×46×33 cm clear Plexiglas) and permitted to explore freely and habituate for 60 min. The animals were then either left undisturbed in the field or removed and infused with either vehicle or 6FNE (3 nmoles) and replaced in the field for a further 15 min. For comparative purposes a further group of implanted animals, similarly habituated to the field, was given an i.p. injection of d-amphetamine (5 mg/kg) prior to the final 15 min exposure. Movement in the field was videorecorded and was subsequently rated blind for the number of quadrants entered as well as the amount of time spent not touching the walls (“time in the center of the field”).

[9] = tested on: Swiss Webster male mice; assay: LPS model of depression (anhedonia); type: in vivo, mouse
Experimental: 1LPS model of depression (anhedonia): A modification of the Frenois et al (2007) model of LPS-induced anhedonia in the mouse was used to obtain a non-motoric index of depressed behavior. In this model, trained mice show a marked decrease in preference for a sweet solution 24-48 h after a systemic dose of LPS (830 μg/kg, i.p.), a time when they have recovered from the sickness behavior and anorexia caused by the acute effects of the toxin. For the model, the animals were first implanted with 4th ventricular cannulas as above and, during the recovery period, trained to drink diluted sweetened condensed milk solution (Magnolia 1:3 v:v milk:tap water) by 15 min presentations every other day for 7-10 d. […] Animals given i.p. injections were dosed 14, 12 and 0.5 h prior to the last test.

[10] = in vivo; cited from earlier work
[11] = tested on: Fos expression in LC, PVH, lateral septal nucleus and NAC; assay: Fos immunohistochemistry in stress- and motivation-related brain regions; type: in vivo, mouse; conditions: 6FNE 3 nmoles ivt.
Experimental: At 70 min after drug infusion all animals were deeply anesthetized with a combination of isoflurane and urethane (2.2 g/kg, i.p.) and perfused intracardially with 4% paraformaldehyde for subsequent immunohistochemistry and histological examination of the cannula tip with respect to the 4th ventricle.
Immunohistochemistry: Methods used for single and double-label Fos and Fos+tyrosine hydroxylase immunohistochemistry have been described in detail elsewhere (Stone, et al., Brain Research (2009) 1291:21-31). In brief, at 70 min after drug infusion deeply anesthetized (isoflurane plus urethane, 2.2 g/kg) mice were perfused intracardially with saline (25 ml) and 4% paraformaldehyde (45 ml), and the sucrose-treated brains were sectioned at 35 p and stained either singly for Fos (PVH, lateral septal nucleus, shell of nucleus accumbens (NAC)) or doubly for Fos and tyrosine hydroxylase (LC). Rabbit anti-fos (Oncogene Science 1:20,000) and chicken anti-tyrosine hydroxylase (Novus Biologicals, 1:5,000) were primary antibodies. Single-label staining involved nickel intensified-diaminobenzidine localization of the secondary biotinylated antibody and avidin-biotin-peroxidase complex. Double-label staining involved the use of Alexa-488 labeled secondary anti-rabbit and Alexa-594 labeled secondary anti-chicken antibodies. […] In all sections, to preclude biasing in the placement of counting frames, large frames comprising the total two dimensional extent of the target structures were counted for every Fos-positive cell by ImageJ. Double-labeled LC cells were defined as those having a fluorescently labeled cytoplasm (TH) and nucleus (Fos) greater than twice background fluorescence.

[12] = tested on: brain α-adrenoceptors; conditions: cited from earlier work
[13] = tested on: cortical α1-adrenoceptors; conditions: prazosin 5 mg/kg; cited from earlier work
[14] = tested on: mice; conditions: months of chronic treatment (Doze et al. 2009); cited from earlier work
[15] = tested on: handling-stressed mice; assay: Home cage activity after handling and injection stress; type: in vivo, mouse; conditions: acute i.p. dp6FNE 1 mg/kg in the presence of phentolamine; cirazoline 0.1 mg/kg; FIG. 3
Experimental: FIG. 3 depicts the effect of acute i.p. dp6FNE (1 mg/kg) or cirazoline (0.1 mg/kg), (both N=1), on home cage activity in terms of rearing and ambulation, Veh (N=12).
It is known that peripheral administration of α1-agonists without phentolamine impairs exploratory behavior in the open field (Yang, et al., J Pharmacol exp Ther 1990; 255: 1064-1070).

[16] = tested on: mice; conditions: months of chronic treatment (Doze et al. 2009); cited from earlier work; remark: listed apart in the source
[17] = tested on: mice; conditions: given chronically in the drinking water; cited from earlier work
[18] = overall effect across depression tests
[19] = 5th swim, 6FNE ivt. peak dose, DMI subacute i.p. 10 mg/kg
[20] = 5th swim, DMI subacute i.p. 10 mg/kg

CCC1(c2cnc[nH]2)Cc2ccccc2C1 [atipamezole]
effect of coinfused antagonist on anti-immobility effect of 6FNE ([1]; 6FNE 3 nmoles + antagonist 1 nmole ivt.): totally abolished the effect of 6FNE
effect of antagonist alone on immobility (antagonist+vehicle versus vehicle-only) ([1]; antagonist 1 nmole ivt.): had no effect in this group
blockade of sedative and hypothermic effects of a low dose of dexmedetomidine [2]: approximately 70%
affinity for respective receptor [3]: low nanomolar affinities
overall effect of antagonist pretreatment on distance swum [4]: no significant overall action
overall effect of antagonist pretreatment on immobility [4]: no significant overall effect

NCC(O)c1cc(O)c(O)cc1F (stereo not shown) [6FNE, 6-fluoronorepinephrine]
sedation [5]: no sedative effect
neural activity of the LC measured from c-Fos expression [6]: virtually complete cessation of the neural activity
immobility, % vehicle control ([1]; 6FNE ivt. 3 nmoles, DMI subacute i.p. 10 mg/kg): 24.7±7.8%
immobility versus vehicle ([1]; DMI subacute i.p. 10 mg/kg): equally effective; also recorded: significant overall reduction in immobility
climbing duration, overall effect ([7]; ivt. 6FNE dose-response, one-way ANOVA): failed to show statistical significance
immobility versus vehicle ([7]; second swim, 6FNE ivt. peak dose 3 nmoles, DMI subacute i.p. 10 mg/kg): differed significantly from vehicle
time in the center of the field [8]: restored this behavior back to the level of the non-handled controls; also recorded: complete rescue
total quadrants entered [8]: no change in activity compared to the non-handled animals; also recorded: completely rescued the activity
sucrose preference ([9]; acute ivt. 6FNE 48 h after LPS 830 μg/kg i.p.): rescued by 6FNE
sucrose intake ([9]; acute ivt. 6FNE in LPS-pretreated animals): inverted-U-shaped increase
passage of the blood brain barrier / uptake by the brain [10]: does not pass the blood brain barrier
Fos expression in LC [11, 18]: significant overall reduction
Fos expression in PVH [11, 18]: significant overall reduction
Fos expression in lateral septal nucleus ([11]; p<0.05): overall increase
Fos expression in NAC ([11]; p<0.1): overall increase
distance swum, % vehicle control [4, 19]: 193.4±22.8%
immobility, % vehicle control [4, 19]: 36.7±9.2%
distance swum versus vehicle [4, 20]: borderline increase in distance swum
immobility versus vehicle [4, 20]: only 6FNE was effective; also recorded: dose-dependently reduced immobility
antidepressant response compared with ivt PE ([4]; single ivt. infusion 0, 1, 3, 10 nmoles, Example 4, expected): more rapid or greater antidepressant response than PE
agonist efficacy [12]: only known selective full agonist

COc1cc2nc(N3CCN(C(=O)c4ccco4)CC3)nc(N)c2cc1OC [prazosin]
block of cortical α1-adrenoceptors by ex vivo binding [13]: 30%
overall effect of antagonist pretreatment on distance swum [4]: significant overall decrease of distance swum
overall effect of antagonist pretreatment on immobility [4]: significant overall increase of immobility
effect of antagonist alone on TST or RFS measures ([4]; prazosin alone 0.2 mg/kg): did not affect these measures

c1ccc(C2CC2)c(OCC2=NCCN2)c1 [cirazoline]
anxiety measured by behavioral inhibition [14]: failed to affect anxiety
home cage exploration / behavioral inhibition after handling and injection stress [15]: not effective in reducing behavioral inhibition
anxiety measured by behavioral inhibition [16]: failed to affect anxiety
antidepressant effect [17]: significant antidepressant effects in the forced swim test
agonist efficacy [12]: partial agonists

Cc1cccc([C@H](C)c2cnc[nH]2)c1C [dexmedetomidine]
immobility versus vehicle ([1]; DMI subacute i.p. 10 mg/kg): equally effective
immobility versus vehicle ([1]; DMI subacute i.p. 10 mg/kg, listed as DEX): significant dose-dependent decrease in immobility
affinity for respective receptor [3]: low nanomolar affinities
distance swum versus vehicle [4, 20]: failed to have an overall significant effect
immobility versus vehicle [4, 20]: only 6FNE was effective
immobility versus vehicle ([4]; 5th swim, DMI subacute i.p. 10 mg/kg, listed as DEX): failed to have an overall significant effect on immobility
immobility at single dose ([4]; DEX 0.04 nmoles ivt.): borderline significant reduction in immobility
